Like-named read-outs stand apart in the source and are kept apart here.
Tests used:
MES seizures, mice [1] = assay: Maximal electroshock (MES) seizure test; assay type: in vivo; conditions: Mus musculus, ip; for ED50: at TPE (0.5 h; LTG 1.0 h), 95% confidence intervals in parentheses; for responders at 100 mg/kg: 0.5 h, i.p.
[2] = tested on: 6 Hz (32 mA) seizures, mice; assay: Psychomotor 6 Hz (32 mA) seizure model; assay type: in vivo; conditions: for ED50 / responders at 100 mg/kg: Mus musculus, ip; for ED50: at TPE (0.5 h; LTG 1.0 h), 95% confidence intervals in parentheses; for responders at 100 mg/kg: 0.5 h, read-out: 6 Hz (32 mA) test, number of mice protected / number of mice tested (converted)
in vivo = conditions: mouse, ip
Cav1.2 channel = target: T1, Cav1.2 channel (Rattus norvegicus, UniProt P22002); assay: Radioligand binding, Cav1.2 channel; design: inhibition: dose or concentration left out as unconfirmed; conditions: for inhibition: rat cerebral cortex, read-out: % Inhibition of Control Specific Binding, Cav1.2 Channel (Antagonist Radioligand); for binding to voltage-gated calcium channels Cav1.2: concentration of 10 µM
T1 construct: tissue Eurofins (Poitiers, France), contract assay; host or cells: rat cerebral cortex (own knowledge of the vendor's assay)
Procedure: (§1) Taking into consideration the structural similarities of molecules described in the current manuscript with their chemical prototypes AS-1 and DK-1, the binding studies toward aforementioned molecular targets were performed commercially for several active substances from each subseries (3, 4, 21, 24, 25, 27, 29, and 30). Furthermore, we also tested two other and well-known targets for AEDs, namely, the Cav2.2 (N-type) calcium channel and gamma-aminobutyric acid (GABA)-A receptor. With the aim of excluding potentially dangerous proarrhythmic properties for each compound, their interaction with the potassium (hERG) channel was also tested.
(§2) Binding studies were carried out commercially in Eurofines Laboratories (Poitiers, France). The functional assays were performed in Eurofins Panlabs Discovery Services Taiwan, Ltd. (New Taipei City, Taiwan). All procedures are described elsewhere (for details, see Table S4 in Supplementary Materials).
(§3) Binding studies were carried out commercially in Eurofines Laboratories (Poitiers, France). The
(§4) functional assays were performed in Eurofins Panlabs Discovery Services Taiwan, Ltd. (New Taipei
(§5) City, Taiwan). All procedures are described elsewhere (Table S4).
(§6) Table S4. In vitro binding and functional assays.
(§7) GABA-A receptor (α1,β2,γ2)
(§8) Potassium channel (hERG) 14
(§9) Cav1.2 (h) calcium ion channel cell based antagonist calcium flux assay 16,17

[3] = Rotarod test for acute neurological toxicity; conditions: mouse, in vivo, ip
[4] = tested on: motor coordination of mice; assay: Rotarod test for acute neurological toxicity; conditions: for impairment of motor coordination of mice: doses as high as 300 mg/kg; for Rotarod test, number of mice / number of mice tested: i.p., 100 mg/kg, 0.5 h
Na+ channel (site 2) = assay: Radioligand binding, Na+ channel (site 2); conditions: 10 µM; rat cerebral cortex
Procedure: as §1, §2, §3, §4, §5
(§10) Table S4. In vitro binding and functional assays. […]

[5] = target: T2, GABA-A receptor (α1,β2,γ2) (Homo sapiens, UniProt P14867+P47870); assay: Radioligand binding, GABA-A receptor; design: dose or concentration left out as unconfirmed; conditions: rat cerebral cortex; read-out: % Inhibition of Control Specific Binding, GABA-A Receptor (α1,β2,γ2) (Agonist Radioligand)
T2 construct: Eurofins (Poitiers, France), contract assay
Procedure: as §1, §2, §3, §4, §5, §6, §7, §8, §9

Potassium channel (hERG) = target: T3, Potassium channel (hERG) (Homo sapiens, UniProt Q12809); assay: Binding, potassium channel (hERG); conditions: 100 µM; human recombinant (HEK-293 cells)
T3 construct: Eurofins (Poitiers, France), contract assay
Procedure: as §1, §2, §3, §4, §5, §6, §7, §8, §9

Cav2.2 channel = target: T4, Cav2.2 channel (Rattus norvegicus, UniProt Q02294); assay: Radioligand binding, Cav2.2 channel; design: dose or concentration left out as unconfirmed; conditions: rat cerebral cortex; read-out: % Inhibition of Control Specific Binding, Cav2.2 Channel (Antagonist Radioligand)
T4 construct: tissue Eurofins (Poitiers, France), contract assay; host or cells: rat cerebral cortex (own knowledge of the vendor's assay)
Procedure: as §1, §2, §3, §4, §5, §6, §7, §8, §9

PTZ seizures, mice = conditions: known AED, background statement; cited from earlier work
[6] = target: T5, Cav1.2 (h) calcium ion channel (Homo sapiens, UniProt Q13936); assay: Cav1.2 (h) cell-based antagonist calcium flux assay; conditions: for antagonist properties in cell-based flux studies (Cav1.2): 10 µM; for inhibition at 10 µM: HEK293, human recombinant (HEK-293 cells), read-out: % Inhibition of Control Agonist Response, Cav1.2 (h) calcium flux
T5 construct: host or cells: HEK-293
Procedure: as §2, §3, §4, §5, §10, §9

CYP2C9 = CYP2C9 (Homo sapiens, UniProt P11712); assay: Luminescent CYP2C9 P450-Glo assay
CYP3A4 = target: T6, CYP3A4 (Homo sapiens, UniProt P08684); assay: Luminescent CYP3A4 P450-Glo assay; assay type: in vitro ADME; conditions: 1 µM
T6 construct: purchased Promega (Madison, WI, USA)

[7] = Parallel artificial membrane permeability assay (PAMPA)
Procedure: (§11) Passive diffusion was tested in the parallel artificial membrane permeability assay (PAMPA) and expressed as the permeability coefficient (Pe). A highly permeable compound, caffeine (CFN), and a poorly permeable compound, norfloxacin (NFX), were used as the references.
(§12) Precoated PAMPA Plate System Gentest™ was provided by Corning, (Tewksbury, MA, USA).

[8] = Metabolic stability in human liver microsomes; assay type: in vitro ADME; conditions: 120 min incubation with HLMs
Source text: Human liver microsomes (HLMs) were used for metabolic stability determination. Moreover, the most probable phase I reactions and structures of metabolites were proposed according to ion fragment analyses with the in silico support of MetaSite 6.0.1 software. […] On the other hand, an excellent metabolic stability of compound 24 was observed. Less than 4% of this derivative was converted into double-hydroxylated metabolite M1 (Figures S3, S4, and S7, Supplementary Materials). Finally, two monohydroxylated metabolites (M1, M2) were found in the reaction mixture with HLMs and 30, and around 17% of this compound was metabolized (Figures S5–S7, Supplementary Materials).
These assays were performed on human liver microsomes (HLMs), purchased from Sigma-Aldrich (St. Louis, MO, USA), according to [14].

[9] = tested on: 6 Hz (32 mA) seizures, mice; conditions: known AED, background statement; cited from earlier work
MES seizures, mice [10] = conditions: known AED, background statement; cited from earlier work
in vitro = conditions: PAMPA
Procedure: as §11, §12

[11] = groups of four, read-out: protection in the MES test
[12] = read-out: MES test, number of mice protected / number of mice tested (converted)

T4 sequence (Q02294 whole entry): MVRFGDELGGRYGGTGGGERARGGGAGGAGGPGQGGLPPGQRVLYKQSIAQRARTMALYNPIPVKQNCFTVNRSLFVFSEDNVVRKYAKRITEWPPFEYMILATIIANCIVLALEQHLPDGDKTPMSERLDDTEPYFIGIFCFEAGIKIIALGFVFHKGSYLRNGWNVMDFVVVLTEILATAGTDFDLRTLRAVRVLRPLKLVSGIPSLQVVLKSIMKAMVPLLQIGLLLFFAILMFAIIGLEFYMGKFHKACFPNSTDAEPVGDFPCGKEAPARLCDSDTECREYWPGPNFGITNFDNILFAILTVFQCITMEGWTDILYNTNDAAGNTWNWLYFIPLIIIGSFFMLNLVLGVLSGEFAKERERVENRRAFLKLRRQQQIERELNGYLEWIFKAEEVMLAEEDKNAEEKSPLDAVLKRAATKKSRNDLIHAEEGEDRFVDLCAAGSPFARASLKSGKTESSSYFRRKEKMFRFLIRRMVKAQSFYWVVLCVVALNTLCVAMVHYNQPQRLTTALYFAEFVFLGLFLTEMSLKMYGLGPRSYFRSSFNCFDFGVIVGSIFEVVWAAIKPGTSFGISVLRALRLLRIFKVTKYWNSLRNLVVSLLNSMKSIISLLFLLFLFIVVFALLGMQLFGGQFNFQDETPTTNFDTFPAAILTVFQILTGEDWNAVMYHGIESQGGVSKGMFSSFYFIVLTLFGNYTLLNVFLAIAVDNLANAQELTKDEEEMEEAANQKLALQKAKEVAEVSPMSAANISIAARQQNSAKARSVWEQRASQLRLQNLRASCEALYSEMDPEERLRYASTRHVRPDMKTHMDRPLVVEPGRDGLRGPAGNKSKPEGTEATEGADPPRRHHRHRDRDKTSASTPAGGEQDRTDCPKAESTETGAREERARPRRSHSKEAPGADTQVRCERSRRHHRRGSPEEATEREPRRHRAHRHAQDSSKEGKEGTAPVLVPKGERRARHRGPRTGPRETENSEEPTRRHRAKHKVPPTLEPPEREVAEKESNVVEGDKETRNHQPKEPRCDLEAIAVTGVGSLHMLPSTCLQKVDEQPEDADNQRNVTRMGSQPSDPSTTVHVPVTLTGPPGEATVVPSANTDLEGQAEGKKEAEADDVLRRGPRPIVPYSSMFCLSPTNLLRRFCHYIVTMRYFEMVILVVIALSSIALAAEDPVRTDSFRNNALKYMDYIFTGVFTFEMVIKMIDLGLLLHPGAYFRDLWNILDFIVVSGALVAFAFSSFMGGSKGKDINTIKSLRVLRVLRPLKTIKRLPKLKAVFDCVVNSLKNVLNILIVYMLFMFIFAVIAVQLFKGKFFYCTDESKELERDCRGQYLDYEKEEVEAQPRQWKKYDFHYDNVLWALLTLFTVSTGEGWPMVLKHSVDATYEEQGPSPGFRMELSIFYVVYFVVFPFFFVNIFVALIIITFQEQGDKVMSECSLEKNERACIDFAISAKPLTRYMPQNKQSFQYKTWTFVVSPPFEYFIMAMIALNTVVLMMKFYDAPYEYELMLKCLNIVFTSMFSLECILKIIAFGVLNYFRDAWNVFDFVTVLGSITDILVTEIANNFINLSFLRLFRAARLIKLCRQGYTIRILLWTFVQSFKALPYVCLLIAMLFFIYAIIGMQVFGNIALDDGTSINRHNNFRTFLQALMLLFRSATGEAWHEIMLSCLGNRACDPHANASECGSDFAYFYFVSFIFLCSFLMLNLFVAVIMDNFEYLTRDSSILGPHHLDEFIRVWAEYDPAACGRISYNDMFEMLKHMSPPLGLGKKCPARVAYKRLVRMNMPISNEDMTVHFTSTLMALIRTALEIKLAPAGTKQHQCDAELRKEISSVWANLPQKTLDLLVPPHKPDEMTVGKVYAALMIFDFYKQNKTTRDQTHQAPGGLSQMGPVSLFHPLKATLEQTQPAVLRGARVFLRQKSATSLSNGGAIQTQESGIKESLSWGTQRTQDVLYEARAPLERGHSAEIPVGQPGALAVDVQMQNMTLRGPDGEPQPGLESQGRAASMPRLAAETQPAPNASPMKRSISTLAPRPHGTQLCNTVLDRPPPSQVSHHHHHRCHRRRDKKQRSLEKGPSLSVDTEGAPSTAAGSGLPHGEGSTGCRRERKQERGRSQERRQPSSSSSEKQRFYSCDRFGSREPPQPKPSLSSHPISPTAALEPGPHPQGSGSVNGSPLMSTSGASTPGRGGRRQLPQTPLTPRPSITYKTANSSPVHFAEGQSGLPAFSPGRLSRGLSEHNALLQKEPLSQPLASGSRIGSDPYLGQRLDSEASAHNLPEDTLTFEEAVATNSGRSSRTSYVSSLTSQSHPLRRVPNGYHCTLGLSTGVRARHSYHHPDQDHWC
T4 sequence (P54287 whole entry partner): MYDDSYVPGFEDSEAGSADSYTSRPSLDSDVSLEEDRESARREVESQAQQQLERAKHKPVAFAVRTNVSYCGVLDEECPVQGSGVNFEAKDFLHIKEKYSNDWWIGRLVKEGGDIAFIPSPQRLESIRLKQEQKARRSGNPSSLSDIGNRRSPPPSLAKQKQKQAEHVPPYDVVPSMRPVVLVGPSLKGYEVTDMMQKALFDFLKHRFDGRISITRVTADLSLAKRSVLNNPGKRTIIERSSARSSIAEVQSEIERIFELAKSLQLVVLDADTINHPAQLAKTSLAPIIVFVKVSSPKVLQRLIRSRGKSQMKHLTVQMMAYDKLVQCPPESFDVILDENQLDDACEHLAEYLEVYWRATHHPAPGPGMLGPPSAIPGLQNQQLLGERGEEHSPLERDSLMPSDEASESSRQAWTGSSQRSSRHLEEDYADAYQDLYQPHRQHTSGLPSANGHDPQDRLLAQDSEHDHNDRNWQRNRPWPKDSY
T4 sequence (P54290 25-944 partner limits assumed): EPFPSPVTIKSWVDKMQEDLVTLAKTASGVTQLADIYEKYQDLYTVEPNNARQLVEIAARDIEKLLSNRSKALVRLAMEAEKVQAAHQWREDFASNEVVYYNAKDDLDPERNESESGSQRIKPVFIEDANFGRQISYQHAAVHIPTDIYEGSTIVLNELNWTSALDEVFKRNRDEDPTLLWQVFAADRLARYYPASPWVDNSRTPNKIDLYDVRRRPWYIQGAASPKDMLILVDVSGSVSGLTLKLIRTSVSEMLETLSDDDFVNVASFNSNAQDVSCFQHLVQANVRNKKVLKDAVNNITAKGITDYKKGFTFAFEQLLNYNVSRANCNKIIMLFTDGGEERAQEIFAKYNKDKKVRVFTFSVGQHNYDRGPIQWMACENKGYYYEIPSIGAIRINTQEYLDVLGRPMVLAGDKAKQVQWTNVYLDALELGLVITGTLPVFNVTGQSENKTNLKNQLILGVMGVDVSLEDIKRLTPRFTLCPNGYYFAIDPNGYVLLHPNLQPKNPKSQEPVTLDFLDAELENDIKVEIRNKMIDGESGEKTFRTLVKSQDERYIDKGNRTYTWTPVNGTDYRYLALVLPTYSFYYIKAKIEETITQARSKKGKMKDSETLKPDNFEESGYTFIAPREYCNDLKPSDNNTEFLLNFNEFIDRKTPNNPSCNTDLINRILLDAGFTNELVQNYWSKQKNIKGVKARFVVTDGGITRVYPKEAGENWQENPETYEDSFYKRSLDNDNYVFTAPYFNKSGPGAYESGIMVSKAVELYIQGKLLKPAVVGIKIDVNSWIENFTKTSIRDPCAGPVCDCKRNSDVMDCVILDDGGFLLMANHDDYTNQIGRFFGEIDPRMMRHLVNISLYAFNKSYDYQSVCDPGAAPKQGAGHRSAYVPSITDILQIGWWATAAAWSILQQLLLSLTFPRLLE
T4 sequence (P54290 945-1091 partner limits assumed): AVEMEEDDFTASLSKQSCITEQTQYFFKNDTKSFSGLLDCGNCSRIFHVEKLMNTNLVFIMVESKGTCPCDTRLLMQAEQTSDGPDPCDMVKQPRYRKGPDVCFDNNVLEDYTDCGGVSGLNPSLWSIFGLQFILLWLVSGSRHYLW
T3 sequence (Q12809 whole entry): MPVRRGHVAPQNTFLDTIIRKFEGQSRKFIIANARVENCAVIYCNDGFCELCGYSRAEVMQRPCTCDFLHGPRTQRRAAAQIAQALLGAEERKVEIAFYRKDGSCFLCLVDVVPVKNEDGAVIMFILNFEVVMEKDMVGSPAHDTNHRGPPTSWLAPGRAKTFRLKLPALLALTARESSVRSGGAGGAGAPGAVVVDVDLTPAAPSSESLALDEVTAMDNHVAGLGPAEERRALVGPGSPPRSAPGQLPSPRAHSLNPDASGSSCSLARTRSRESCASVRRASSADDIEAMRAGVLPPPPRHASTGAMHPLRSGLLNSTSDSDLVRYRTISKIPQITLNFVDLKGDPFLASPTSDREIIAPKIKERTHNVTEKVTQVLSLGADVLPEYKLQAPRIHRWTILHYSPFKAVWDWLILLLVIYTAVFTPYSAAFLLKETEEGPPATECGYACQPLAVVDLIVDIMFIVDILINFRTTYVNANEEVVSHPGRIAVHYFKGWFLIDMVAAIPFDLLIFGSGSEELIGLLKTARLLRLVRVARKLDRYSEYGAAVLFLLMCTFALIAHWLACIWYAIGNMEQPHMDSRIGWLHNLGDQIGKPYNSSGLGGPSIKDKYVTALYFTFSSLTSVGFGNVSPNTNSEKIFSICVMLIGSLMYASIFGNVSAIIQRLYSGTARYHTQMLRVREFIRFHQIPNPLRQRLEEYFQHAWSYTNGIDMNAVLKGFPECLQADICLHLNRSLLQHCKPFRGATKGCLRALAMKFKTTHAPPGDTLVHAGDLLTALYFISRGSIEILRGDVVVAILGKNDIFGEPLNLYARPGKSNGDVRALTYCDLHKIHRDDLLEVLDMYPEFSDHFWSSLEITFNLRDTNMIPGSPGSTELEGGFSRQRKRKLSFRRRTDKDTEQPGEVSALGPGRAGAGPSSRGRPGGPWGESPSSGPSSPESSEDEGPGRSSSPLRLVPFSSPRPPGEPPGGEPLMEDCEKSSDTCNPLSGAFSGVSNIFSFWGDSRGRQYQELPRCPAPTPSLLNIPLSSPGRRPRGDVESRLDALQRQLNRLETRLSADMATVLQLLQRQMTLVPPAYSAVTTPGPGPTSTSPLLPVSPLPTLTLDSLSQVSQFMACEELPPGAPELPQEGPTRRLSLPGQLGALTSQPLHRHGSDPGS

| SMILES | ED50 (MES seizures, mice [1]) | ED50 [2] | inhibition (Cav1.2 channel) | TD50 at 0.5 h [3] | Rotarod test, number of mice / number of mice tested [4] | responders at 100 mg/kg (MES seizures, mice [1]; [11]) | responders at 100 mg/kg (MES seizures, mice [1]; [12]) | % Inhibition of Control Specific Binding, Na+ Channel (Site 2) (Antagonist Radioligand) (Na+ channel (site 2)) | inhibition [5] | responders at 100 mg/kg [2] | % Inhibition of Control Specific Binding, Potassium Channel (hERG) (Potassium channel (hERG)) | inhibition (Cav2.2 channel) | melting point | inhibition at 10 µM [6] | also measured |
| --- | --- | --- | --- | --- | --- | --- | --- | --- | --- | --- | --- | --- | --- | --- | --- |
| Nc1nnc(-c2cccc(Cl)c2Cl)c(N)n1 [LTG, lamotrigine, reference compound] | 3.1 mg/kg | 6.4 mg/kg | – | – | – | – | – | – | – | – | – | – | – | – | TD50 at 0.5 h (in vivo): 48.3 mg/kg |
| O=C(Nc1ccccc1)C(c1ccccc1)N1C(=O)CCC1=O (stereo not drawn) [Compound 3, 2-(2,5-Dioxopyrrolidin-1-yl)-N,2-diphenylacetamide] | > 130 mg/kg | 92.5 mg/kg | 9% | > 300 mg/kg | 0/4 | ≥ 50% | 50% | 10.8% | 5.2% | 75% | 0.8% | 3.6% | – | – | impairment of motor coordination of mice [4]: did not impair motor coordination |
| CCC1(C)CC(=O)NC1=O (stereo not drawn) [ETX, ethosuximide] | – | – | – | – | – | – | – | – | – | – | – | – | – | – | activity in the (sc)PTZ model (PTZ seizures, mice): protected mice only in the scPTZ model |
| O=C(NCCc1cccc(C(F)(F)F)c1)C(c1ccccc1)N1C(=O)CCC1=O (stereo not drawn) [Compound 29, 2-(2,5-Dioxopyrrolidin-1-yl)-2-phenyl-N-(3-(trifluoromethyl)phenethyl)acetamide] | 55.4 mg/kg | 49.3 mg/kg | 44.2% | 179 mg/kg | 0/4 | 100% | 75% | 18.3% | 2.1% | 75% | 3.4% | -0.6% | 149.2 to 150.4 °C | 45% | binding to voltage-gated calcium channels Cav1.2 (Cav1.2 channel): moderate binding; antagonist properties in cell-based flux studies (Cav1.2) [6]: moderate antagonist properties |
| Nc1ccc(S(=O)(=O)Nc2ccnn2-c2ccccc2)cc1 [SE, sulfaphenazole, reference compound] | – | – | – | – | – | – | – | – | – | – | – | – | – | – | effect on CYP2C9 activity (CYP2C9; 1 µM): almost completely blocked CYP2C9 activity |
| O=C(NCc1cccc(OC(F)(F)F)c1)C(c1ccccc1)N1C(=O)CCC1=O (stereo not drawn) [Compound 24, 2-(2,5-Dioxopyrrolidin-1-yl)-2-phenyl-N-(3-(trifluoromethoxy)benzyl)acetamide] | > 130 mg/kg | 43.8 mg/kg | 36.5% | > 300 mg/kg | 0/4 | ≥ 50% | 75% | 22.3% | -0.8% | 100% | 4.4% | 5.5% | 129.6 to 130.4 °C | 38.8% | binding to voltage-gated calcium channels Cav1.2 (Cav1.2 channel): moderate binding; impairment of motor coordination of mice [4]: did not impair motor coordination; effect on CYP3A4 activity (CYP3A4): slightly inhibited CYP3A4 activity; Papp [7]: 109 ± 5 nm/s; compound converted into metabolites / metabolized [8]: Less than 4%; parent compound remained in the reaction mixture [8]: 96.49%; antagonist properties in cell-based flux studies (Cav1.2) [6]: moderate antagonist properties; CYP2C9 activity, % of control (CYP2C9; 10 and 25 µM): up to 140 % of control |
| CC[C@@H](C(N)=O)N1CCCC1=O [LEV, levetiracetam] | – | – | – | – | – | – | – | – | – | – | – | – | – | – | activity in the 6 Hz (32 mA) model [9]: showed efficacy only in the 6 Hz seizure model |
| COC[C@@H](NC(C)=O)C(=O)NCc1ccccc1 [LCS, lacosamide] | – | – | – | – | – | – | – | – | – | – | – | – | – | – | activity in the MES model (MES seizures, mice [10]): active; activity in the 6 Hz (32 mA) model [9]: active |
| O=C(NCCc1cccc(Cl)c1)C(c1ccccc1)N1C(=O)CCC1=O (stereo not drawn) [Compound 27, N-(3-Chlorophenethyl)-2-(2,5-dioxopyrrolidin-1-yl)-2-phenylacetamide] | – | 36.3 mg/kg | 38.3% | > 300 mg/kg | 0/4 | – | 50% | 20.1% | 0.7% | 75% | 2.7% | 3.8% | 137.4 to 138.2 °C | 40% | binding to voltage-gated calcium channels Cav1.2 (Cav1.2 channel): moderate binding; antagonist properties in cell-based flux studies (Cav1.2) [6]: moderate antagonist properties |
| O=C(NCc1ccccc1C(F)(F)F)C(c1ccccc1)N1C(=O)CCC1=O (stereo not drawn) [Compound 21, 2-(2,5-Dioxopyrrolidin-1-yl)-2-phenyl-N-(2-(trifluoromethyl)benzyl)acetamide] | 49.6 mg/kg | – | 26.6% | > 300 mg/kg | 0/4 | ≥ 50% | 50% | 18.8% | 1.2% | 25% | 6.3% | 0.2% | 137.7 to 139.1 °C | 27% | impairment of motor coordination of mice [4]: did not impair motor coordination; effectiveness in the 6 Hz test ([2]; i.p.): not effective |
| O=C(NCCc1ccccc1)C(c1ccccc1)N1C(=O)CCC1=O (stereo not drawn) [Compound 25, 2-(2,5-Dioxopyrrolidin-1-yl)-N-phenethyl-2-phenylacetamide] | 87.9 mg/kg | 88.9 mg/kg | 19% | 210 mg/kg | 1/4 | ≥ 50% | 75% | 14.8% | 3.6% | 75% | 4.8% | 2.5% | – | – | acute neurological toxicity (rotarod) ([4]; at doses around or below 200 mg/kg): moderate acute neurological toxicity |
| CCn1cc(C(=O)O)c(=O)c2cc(F)c(N3CCNCC3)cc21 [NFX, norfloxacin] | – | – | – | – | – | – | – | – | – | – | – | – | – | – | Papp (in vitro): 0.56 nm/s |

Source: paper PMC7699745, “The Search for New Anticonvulsants in a Group of (2,5-Dioxopyrrolidin-1-yl)(phenyl)Acetamides with Hybrid Structure—Synthesis and In Vivo/In Vitro Studies” (International Journal of Molecular Sciences, 2020)
